How the values were obtained:
[1] = system: HBV (HepG2.117 cell line, inducibly HBV producing); assay: Anti-HBV activity: intracellular HBV DNA by real-time PCR in HepG2.117 cells after 3 days of treatment; type: cell-based, hepatitis B virus; conditions: Hepatitis B virus, HepG2.117, 72 h, HepG2.117 cells, 3 days of treatment, intracellular HBV DNA by real-time PCR; mean value; read-out: EC50 (μM, mean value)
How it was run: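 HepG2.117 cells (Tet-off, inducible HBV production) were induced to replicate HBV by doxycycline absence, then treated with serially diluted compound for 3 days. Activity was quantified as intracellular HBV DNA by real-time PCR using an HBV-specific primer set and probe.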

in vitro = type: cell-based; conditions: human, HepG2 or HepG2.117 cells, 3-days incubation (unmarked values), ATPlite; mean value
How it was run: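 Luminescent ATP quantitation served as the viability endpoint following a 3- or 4-day incubation with test compounds.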

SMILES | EC50 [1] | CC50 at 3 days (in vitro)
COc1ccc(CNc2nc3c(c(=O)n2-c2ccc(-n4cccn4)cc2)CCN(C(=O)c2ccc(Cl)c(Cl)c2)C3)cc1 [Compound C143, 7-(3,4-dichlorobenzoyl)-2-{[(4-methoxyphenyl)methyl]amino}-3-[4-(1H-pyrazol-1-yl)phenyl]-5,6,7,8-tetrahydropyrido[3,4-d]pyrimidin-4(3H)-one] | 1.46 µM | > 50 µM
CC(C)Nc1nc2c(c(=O)n1-c1ccc(-n3cccn3)cc1)CCN(C(=O)c1ccc(Cl)c(Cl)c1)C2 [Compound C144, 7-(3,4-dichlorobenzoyl)-2-[(propan-2-yl)amino]-3-[4-(1H-pyrazol-1-yl)phenyl]-5,6,7,8-tetrahydropyrido[3,4-d]pyrimidin-4(3H)-one] | 0.6 µM | > 50 µM
COc1ccc(CNc2nc3c(c(=O)n2-c2ccc(S(C)(=O)=O)cc2)C[C@@H](C)N(C(=O)c2ccc(Cl)c(Cl)c2)C3)cc1 [Compound C145, (6R)-7-(3,4-dichlorobenzoyl)-3-[4-(methanesulfonyl)phenyl]-2-{[(4-methoxyphenyl)methyl]amino}-6-methyl-5,6,7,8-tetrahydropyrido[3,4-d]pyrimidin-4(3H)-one] | 0.31 µM | > 42 µM
C[C@@H]1Cc2c(nc(NCc3cscn3)n(-c3ccc(S(C)(=O)=O)cc3)c2=O)CN1C(=O)c1ccc(Cl)c(Cl)c1 [Compound C146, (6R)-7-(3,4-dichlorobenzoyl)-3-[4-(methanesulfonyl)phenyl]-6-methyl-2-{[(1,3-thiazol-4-yl)methyl]amino}-5,6,7,8-tetrahydropyrido[3,4-d]pyrimidin-4(3H)-one] | 1.95 µM | > 50 µM
Cc1c(C(=O)N2CCc3c(nc(NC(C)C)n(-c4ccc(S(C)(=O)=O)cc4)c3=O)C2)[nH]c2ccccc12 [Compound C147, 3-[4-(methanesulfonyl)phenyl]-7-(3-methyl-1H-indole-2-carbonyl)-2-[(propan-2-yl)amino]-5,6,7,8-tetrahydropyrido[3,4-d]pyrimidin-4(3H)-one] | 1.88 µM | > 50 µM
COc1ccc(CNc2nc3c(c(=O)n2-c2cccc4ocnc24)CCN(C(=O)c2ccc(Cl)c(Cl)c2)C3)cc1 [Compound C148, 3-(1,3-benzoxazol-4-yl)-7-(3,4-dichlorobenzoyl)-2-{[(4-methoxyphenyl)methyl]amino}-5,6,7,8-tetrahydropyrido[3,4-d]pyrimidin-4(3H)-one] | 1.48 µM | > 38 µM
COc1ccc(CNc2nc3c(c(=O)n2-c2ccc(C(N)=O)cc2)CCN(C(=O)c2ccc(Cl)c(Cl)c2)C3)cc1 [Compound C149, 4-[7-(3,4-dichlorobenzoyl)-2-{[(4-methoxyphenyl)methyl]amino}-4-oxo-5,6,7,8-tetrahydropyrido[3,4-d]pyrimidin-3(4H)-yl]benzamide] | 1.5 µM | 23.2 µM
C[C@@H]1Cc2c(nc(NCc3ccncn3)n(-c3ccc(S(C)(=O)=O)cc3)c2=O)CN1C(=O)c1ccc(Cl)c(Cl)c1 [Compound C150, (6R)-7-(3,4-dichlorobenzoyl)-3-[4-(methanesulfonyl)phenyl]-6-methyl-2-{[(pyrimidin-4-yl)methyl]amino}-5,6,7,8-tetrahydropyrido[3,4-d]pyrimidin-4(3H)-one] | 5.44 µM | > 50 µM
CC(C)Nc1nc2c(c(=O)n1-c1ccc(S(C)(=O)=O)cc1)CCN(C(=O)c1ccc3ncoc3c1)C2 [Compound C151, 7-(1,3-benzoxazole-6-carbonyl)-3-[4-(methanesulfonyl)phenyl]-2-[(propan-2-yl)amino]-5,6,7,8-tetrahydropyrido[3,4-d]pyrimidin-4(3H)-one] | 10.7 µM | > 50 µM
CC(C)Nc1nc2c(c(=O)n1-c1ccc(S(C)(=O)=O)cc1)CCN(C(=O)c1cc3ccccc3o1)C2 [Compound C152, 7-(1-benzofuran-2-carbonyl)-3-[4-(methanesulfonyl)phenyl]-2-[(propan-2-yl)amino]-5,6,7,8-tetrahydropyrido[3,4-d]pyrimidin-4(3H)-one] | 30.8 µM | > 50 µM
CCOC(=O)c1ccc(-n2c(NC(C)C)nc3c(c2=O)C[C@@H](C)N(C(=O)c2ccc(Cl)c(Cl)c2)C3)cc1 [Compound C153, ethyl 4-[(6R)-7-(3,4-dichlorobenzoyl)-6-methyl-4-oxo-2-[(propan-2-yl)amino]-5,6,7,8-tetrahydropyrido[3,4-d]pyrimidin-3(4H)-yl]benzoate] | 0.75 µM | > 50 µM
CC(C)Nc1nc2c(c(=O)n1-c1ccc(S(C)(=O)=O)cc1)C(C)CN(C(=O)c1ccc(Cl)c(Cl)c1)C2 (stereo not drawn) [Compound C154, 7-(3,4-dichlorobenzoyl)-3-[4-(methanesulfonyl)phenyl]-5-methyl-2-[(propan-2-yl)amino]-5,6,7,8-tetrahydropyrido[3,4-d]pyrimidin-4(3H)-one] | 0.52 µM | > 50 µM
CC(C)Nc1nc2c(c(=O)n1-c1ccc(S(C)(=O)=O)cc1)CCN(C(=O)c1ccc3c(c1)CCO3)C2 [Compound C155, 7-(2,3-dihydro-1-benzofuran-5-carbonyl)-3-[4-(methanesulfonyl)phenyl]-2-[(propan-2-yl)amino]-5,6,7,8-tetrahydropyrido[3,4-d]pyrimidin-4(3H)-one] | 5.29 µM | > 50 µM
CNC(=O)c1ccc(-n2c(NC(C)C)nc3c(c2=O)C[C@@H](C)N(C(=O)c2ccc(Cl)c(Cl)c2)C3)cc1 [Compound C157, 4-[(6R)-7-(3,4-dichlorobenzoyl)-6-methyl-4-oxo-2-[(propan-2-yl)amino]-5,6,7,8-tetrahydropyrido[3,4-d]pyrimidin-3(4H)-yl]-N-methylbenzamide] | 0.04 µM | > 50 µM
CCC1Cc2c(nc(NC(C)C)n(-c3ccc(S(C)(=O)=O)cc3)c2=O)CN1C(=O)c1ccc(Cl)c(Cl)c1 (stereo not drawn) [Compound C158, 7-(3,4-dichlorobenzoyl)-6-ethyl-3-[4-(methanesulfonyl)phenyl]-2-[(propan-2-yl)amino]-5,6,7,8-tetrahydropyrido[3,4-d]pyrimidin-4(3H)-one] | 1.14 µM | > 50 µM
COc1ccc(CNc2nc3c(c(=O)n2-c2ccc(N4CCOCC4C(=O)O)cc2)CCN(C(=O)c2ccc(Cl)c(Cl)c2)C3)cc1 (stereo not drawn) [Compound C159, 4-{4-[7-(3,4-dichlorobenzoyl)-2-{[(4-methoxyphenyl)methyl]amino}-4-oxo-5,6,7,8-tetrahydropyrido[3,4-d]pyrimidin-3(4H)-yl]phenyl}morpholine-3-carboxylic acid] | 23.1 µM | > 50 µM
COc1ccc(CNc2nc3c(c(=O)n2-c2ccc(-c4ncco4)cc2)CCN(C(=O)c2ccc(Cl)c(Cl)c2)C3)cc1 [Compound C160, 7-(3,4-dichlorobenzoyl)-2-{[(4-methoxyphenyl)methyl]amino}-3-[4-(1,3-oxazol-2-yl)phenyl]-5,6,7,8-tetrahydropyrido[3,4-d]pyrimidin-4(3H)-one] | 0.54 µM | > 50 µM
COc1ccc(CNc2nc3c(c(=O)n2-c2ccc(N4CCC(NC(=O)OC(C)(C)C)C4)cc2)CCN(C(=O)c2ccc(Cl)c(Cl)c2)C3)cc1 (stereo not drawn) [Compound C161, tert-butyl (1-{4-[7-(3,4-dichlorobenzoyl)-2-{[(4-methoxyphenyl)methyl]amino}-4-oxo-5,6,7,8-tetrahydropyrido[3,4-d]pyrimidin-3(4H)-yl]phenyl}pyrrolidin-3-yl)carbamate] | 2.4 µM | > 50 µM
CC(C)Nc1nc2c(c(=O)n1-c1ccc(-c3ncco3)cc1)CCN(C(=O)c1ccc(Cl)c(Cl)c1)C2 [Compound C162, 7-(3,4-dichlorobenzoyl)-3-[4-(1,3-oxazol-2-yl)phenyl]-2-[(propan-2-yl)amino]-5,6,7,8-tetrahydropyrido[3,4-d]pyrimidin-4(3H)-one] | 0.47 µM | > 50 µM
CC(C)Nc1nc2c(c(=O)n1-c1ccc(S(C)(=O)=O)cc1)CCN(C(=O)c1nc3ccc(Cl)cc3[nH]1)C2 [Compound C163, 7-(6-chloro-1H-benzimidazole-2-carbonyl)-3-[4-(methanesulfonyl)phenyl]-2-[(propan-2-yl)amino]-5,6,7,8-tetrahydropyrido[3,4-d]pyrimidin-4(3H)-one] | 4.45 µM | > 50 µM
CC(C)Nc1nc2c(c(=O)n1-c1ccc(S(C)(=O)=O)cc1)CCN(C(=O)c1ccc3sccc3c1)C2 [Compound C164, 7-(1-benzothiophene-5-carbonyl)-3-[4-(methanesulfonyl)phenyl]-2-[(propan-2-yl)amino]-5,6,7,8-tetrahydropyrido[3,4-d]pyrimidin-4(3H)-one] | 0.24 µM | > 50 µM
CC(C)Nc1nc2c(c(=O)n1-c1ccc(S(C)(=O)=O)cc1)CCN(C(=O)c1cc3cc(F)c(F)cc3[nH]1)C2 [Compound C165, 7-(5,6-difluoro-1H-indole-2-carbonyl)-3-[4-(methanesulfonyl)phenyl]-2-[(propan-2-yl)amino]-5,6,7,8-tetrahydropyrido[3,4-d]pyrimidin-4(3H)-one] | 0.05 µM | > 50 µM
CC(C)Nc1nc2c(c(=O)n1-c1ccc(-n3cccn3)cc1)C[C@@H](C)N(C(=O)c1ccc(Cl)c(Cl)c1)C2 [Compound C166, (6R)-7-(3,4-dichlorobenzoyl)-6-methyl-2-[(propan-2-yl)amino]-3-[4-(1H-pyrazol-1-yl)phenyl]-5,6,7,8-tetrahydropyrido[3,4-d]pyrimidin-4(3H)-one] | 0.11 µM | > 50 µM
CC(C)Nc1nc2c(c(=O)n1-c1ccc(C(=O)NC3CC3)cc1)C[C@@H](C)N(C(=O)c1ccc(Cl)c(Cl)c1)C2 [Compound C167, N-cyclopropyl-4-[(6R)-7-(3,4-dichlorobenzoyl)-6-methyl-4-oxo-2-[(propan-2-yl)amino]-5,6,7,8-tetrahydropyrido[3,4-d]pyrimidin-3(4H)-yl]benzamide] | 0.06 µM | > 50 µM
